# Source: patent US9567318B2, “Substituted pyrimidine compounds and uses thereof” (Memorial Sloan-Kettering Cancer Center, priority 2009, dated 2017)
# What was measured:
# HSF-1 in SKBr3 cells = experiment: Native gel electrophoresis, HSF-1 activation; format: cell-based, human; conditions: 3 h
# Experimental: FIG. 6. YK5 inhibits core biochemical functions of Hsp70s and disrupts the Hsp90/Hsp70 interaction. a) Refolding of denatured luciferase by Hsc70 and DJA2 at 30° C. was measured for the indicated times in the presence of YK5 (100 μM) or vehicle (left), or at 60 min in the presence of indicated concentrations of YK5 (right). b) Hsc70 ATPase rates were measured for reactions at 30° C. with the indicated combinations of Hsc70 and co-chaperones in the presence of vehicle (DMSO) or YK5 (100 μM). ADP production was monitored by thin layer chromatography separation of radiolabeled ADP from ATP and phosphorimaging analysis (lower). The data are consistent with those obtained from multiple repeat experiments (n≧2). c,d) SKBr3 cells were treated for 24 h with vehicle or indicated concentrations of YK5 (c) or for the indicated times with YK5 (10 μM) (d). Proteins isolated with anti-Hsp90 and Hsp70s antibodies (IP: Hsp90 or Hsp70), or present in the cell extract (Lysate) were analyzed by WB. Specificity of binding was tested with a control IgG. HC=heavy chain; DJA1 and Hdj1=Hsp40 isoforms. e) Unlike Hsp90 inhibitors, YK5 fails to activate HSF-1. […] Proteins were applied to a native gel and analyzed by immunoblotting. The data are consistent with those obtained from multiple repeat experiments (n≧3). f) YK5 was tested in the scanMAX screen (Ambit) against 359 kinases. […]
# [1] = tested on: primary human AML cells (blasts, leukemia stem cells); experiment: Treatment of primary AML cells; format: cell-based; conditions: 24 h
# Experimental: FIG. 20. Treatment of primary AML cells with YK5. YK5 kills both blast and cancer stem cells but not normal cells. Cells were treated with increasing concentrations of YK5 for 24 h. (a-b) % viability relative to untreated control is shown. Open bars: “Other” represent normal cells in the same patient (non-blast), Gray bars: Blasts (CD45 dim). red bars: leukemia stem cells (LSCs) (CD34+CD38-CD123+). (c) CFU (Colony forming units) decrease after treatment of primary AML cells with YK5. **p<0.001.
# Strikingly, a high sensitivity of phenotypically described leukemia stem cells and of total leukemic blasts was observed (FIG. 20b; red vs. gray bars). […] Thus, a compound with cancer stem cell toxicity, such as YKs, is of significant value to improving cancer therapy.
# Primary Cell Isolation and Culture. Primary human AML cells were obtained with informed consent. All manipulation and analysis of specimens was approved by the Weill Cornell Medical College Institutional Review Board. Mononuclear cells were isolated using Ficoll-Plaque (Pharmacia Biotech, Piscataway, N.Y.) density gradient separation. In some cases, cells were cryopreserved in freezing medium consisting of Iscove's modified Dulbecco medium (IMDM), 40% fetal bovine serum (FBS), and 10% dimethylsulfoxide (DMSO) or in CryoStor™ CS-10 (Biolife).
# Hsc70 and DJA2 = target: T1, Hsc70 and DJA2 (Homo sapiens, UniProt P11142); experiment: Luciferase refolding by Hsc70 and DJA2; format: biochemical; conditions: 30° C.
# T1 construct: made in house
# T1 sequence (P11142 whole entry): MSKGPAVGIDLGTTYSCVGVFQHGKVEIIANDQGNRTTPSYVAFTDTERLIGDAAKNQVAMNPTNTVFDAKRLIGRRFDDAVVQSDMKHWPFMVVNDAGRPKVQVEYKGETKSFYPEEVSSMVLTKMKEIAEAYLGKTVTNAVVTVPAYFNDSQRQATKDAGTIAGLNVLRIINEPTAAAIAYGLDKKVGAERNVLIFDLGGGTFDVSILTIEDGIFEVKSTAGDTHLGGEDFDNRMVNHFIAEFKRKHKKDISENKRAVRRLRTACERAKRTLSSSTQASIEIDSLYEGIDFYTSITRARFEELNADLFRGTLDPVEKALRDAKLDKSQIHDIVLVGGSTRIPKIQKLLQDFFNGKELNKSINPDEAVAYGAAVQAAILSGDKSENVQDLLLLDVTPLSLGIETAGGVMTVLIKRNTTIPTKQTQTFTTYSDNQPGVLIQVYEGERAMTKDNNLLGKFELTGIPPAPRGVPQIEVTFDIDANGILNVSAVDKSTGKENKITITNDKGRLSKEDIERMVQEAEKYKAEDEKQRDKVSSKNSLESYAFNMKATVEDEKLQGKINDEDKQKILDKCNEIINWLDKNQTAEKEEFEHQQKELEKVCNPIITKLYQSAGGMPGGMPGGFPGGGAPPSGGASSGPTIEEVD
# Experimental: FIG. 6. YK5 inhibits core biochemical functions of Hsp70s and disrupts the Hsp90/Hsp70 interaction. a) Refolding of denatured luciferase by Hsc70 and DJA2 at 30° C. was measured for the indicated times in the presence of YK5 (100 μM) or vehicle (left), or at 60 min in the presence of indicated concentrations of YK5 (right). b) Hsc70 ATPase rates were measured for reactions at 30° C. with the indicated combinations of Hsc70 and co-chaperones in the presence of vehicle (DMSO) or YK5 (100 μM). ADP production was monitored by thin layer chromatography separation of radiolabeled ADP from ATP and phosphorimaging analysis (lower). […] Proteins isolated with anti-Hsp90 and Hsp70s antibodies (IP: Hsp90 or Hsp70), or present in the cell extract (Lysate) were analyzed by WB. […] Proteins were applied to a native gel and analyzed by immunoblotting. […]
# Hsc70 ATPase Activity and Luciferase Refolding. Human Hsc70, DJA1/DNAJA1, DJA2/DNAJA2 and Hsp110/Hsp105/HSPH1 were purified and analyzed. […] Samples at time points were terminated with 37.5 mM EDTA and analyzed by thin layer chromatography on polyethylene-imine cellulose (Mallinckrodt Baker) developed in 0.5 M LiCl and 0.5 M formic acid. The ADP produced was determined by image phosphor quantitation and the linear enzymatic rates (Vmax) were calculated by regression analysis. […]
smiles,measurement,setting,value
"C=CC(=O)Nc1cc(N)nc(Sc2c(OC)nc(N3CCN(C)CC3)nc2OC)n1 [YK5, N-(6-amino-2-(4,6-dimethoxy-2-(4-methylpiperazin-1-yl)pyrimidin-5-ylthio)pyrimidin-4-yl)acrylamide]",HSF-1 activation,HSF-1 in SKBr3 cells,no effect
same,cell death in primary AML specimens,[1],"induced potent cell death in blast, stem and progenitor populations"
same,refolding of luciferase by purified Hsc70 and DJA2,Hsc70 and DJA2,dose-dependently inhibited the refolding of luciferase
